According to ChEMBL document CHEMBL4619778, “Oligopeptides as Neuropeptide Y Y4 Receptor Ligands: Identification of a High-Affinity Tetrapeptide Agonist and a Hexapeptide Antagonist” (J Med Chem, 2020):
Square brackets hold non-standard residues; d marks the D form. Peptide text beside a SMILES is read from it. ξ: configuration not given here. ξOrn = NCCCC(N)C(=O)O

Key:
[1] = target: T1, Neuropeptide Y receptor type 4 (Homo sapiens, UniProt P50391); experiment: Displacement of [3H]UR-KK200 from human Y4 receptor expressed in CHO cells co-expressing Gqi5-mtAEQ measured after 90 mins by scintillation counting analysis; format: cell-based
T1 sequence (P50391 whole entry): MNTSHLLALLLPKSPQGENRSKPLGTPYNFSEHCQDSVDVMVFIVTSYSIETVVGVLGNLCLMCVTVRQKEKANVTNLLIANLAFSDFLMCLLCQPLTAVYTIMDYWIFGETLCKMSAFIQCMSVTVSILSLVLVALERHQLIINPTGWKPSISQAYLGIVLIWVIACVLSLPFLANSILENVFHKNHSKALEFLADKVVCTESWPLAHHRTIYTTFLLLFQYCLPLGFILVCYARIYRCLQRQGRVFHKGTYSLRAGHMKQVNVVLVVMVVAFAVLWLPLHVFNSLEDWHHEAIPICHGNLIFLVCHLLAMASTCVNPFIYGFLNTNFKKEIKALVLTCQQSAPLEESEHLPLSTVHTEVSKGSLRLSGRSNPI

[2] = target: T2, Neuropeptide Y receptor type 1 (Homo sapiens, UniProt P25929); experiment: Displacement of [3H]UR-MK299 from Y1 receptor in human SK-N-MC cells; format: cell-based
T2 sequence (P25929 whole entry): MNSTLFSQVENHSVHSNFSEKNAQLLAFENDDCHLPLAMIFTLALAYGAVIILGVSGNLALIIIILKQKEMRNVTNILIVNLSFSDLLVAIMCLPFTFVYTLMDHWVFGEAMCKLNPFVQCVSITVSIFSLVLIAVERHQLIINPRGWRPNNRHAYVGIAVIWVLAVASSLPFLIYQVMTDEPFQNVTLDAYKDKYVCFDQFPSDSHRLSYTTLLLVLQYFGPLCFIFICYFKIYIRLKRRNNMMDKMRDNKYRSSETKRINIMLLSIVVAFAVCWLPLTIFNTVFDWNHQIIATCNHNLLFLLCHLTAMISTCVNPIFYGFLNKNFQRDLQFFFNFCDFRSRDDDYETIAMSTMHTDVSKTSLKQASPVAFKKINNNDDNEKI

[3] = target: T3, Neuropeptide Y receptor type 2 (Homo sapiens, UniProt P49146); experiment: Displacement of [3H]propionyl-pNPY from human Y2 receptor expressed in CHO cells measured after 2 hrs by microbeta liquid scintillation counting analysis; format: cell-based
T3 sequence (P49146 whole entry): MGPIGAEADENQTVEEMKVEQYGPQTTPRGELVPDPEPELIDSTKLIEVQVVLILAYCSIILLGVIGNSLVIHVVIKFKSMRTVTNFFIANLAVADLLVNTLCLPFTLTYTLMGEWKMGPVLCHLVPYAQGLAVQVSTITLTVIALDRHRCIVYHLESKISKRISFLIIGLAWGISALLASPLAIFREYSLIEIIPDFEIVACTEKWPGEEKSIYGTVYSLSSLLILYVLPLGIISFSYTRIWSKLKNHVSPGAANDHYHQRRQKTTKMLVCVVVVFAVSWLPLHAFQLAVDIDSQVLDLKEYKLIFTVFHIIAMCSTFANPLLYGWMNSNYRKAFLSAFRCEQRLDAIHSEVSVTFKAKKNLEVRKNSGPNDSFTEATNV

[4] = target: T4, Neuropeptide Y receptor type 5 (Homo sapiens, UniProt Q15761); experiment: Displacement of [3H]propionyl-pNPY from human Y5 receptor expressed in human HEC1B cells; format: cell-based
T4 sequence (Q15761 whole entry): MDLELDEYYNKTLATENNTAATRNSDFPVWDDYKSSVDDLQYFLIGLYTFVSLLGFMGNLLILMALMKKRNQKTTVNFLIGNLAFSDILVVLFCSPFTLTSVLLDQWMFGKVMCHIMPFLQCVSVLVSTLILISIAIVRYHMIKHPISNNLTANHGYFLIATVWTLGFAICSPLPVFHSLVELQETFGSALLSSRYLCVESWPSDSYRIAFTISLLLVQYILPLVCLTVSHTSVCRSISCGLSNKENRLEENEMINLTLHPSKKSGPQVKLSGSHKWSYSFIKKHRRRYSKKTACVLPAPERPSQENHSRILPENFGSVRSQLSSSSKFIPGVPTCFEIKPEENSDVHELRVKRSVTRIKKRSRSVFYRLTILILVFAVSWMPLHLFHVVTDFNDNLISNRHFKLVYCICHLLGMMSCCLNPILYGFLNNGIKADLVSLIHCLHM

Homo sapiens [5] = organism: Homo sapiens; experiment: Selectivity ratio of Ki for displacement of [3H]UR-MK299 from Y1 receptor in human SK-N-MC cells to Ki for displacement of [3H]UR-KK200 from human Y4 receptor expressed in CHO cells co-expressing Gqi5-mtAEQ; format: cell-based
Homo sapiens [6] = organism: Homo sapiens; experiment: Selectivity ratio of Ki for displacement of [3H]propionyl-pNPY from human Y2 receptor expressed in CHO cells to Ki for displacement of [3H]UR-KK200 from human Y4 receptor expressed in CHO cells co-expressing Gqi5-mtAEQ; format: cell-based
Homo sapiens [7] = organism: Homo sapiens; experiment: Selectivity ratio of Ki for displacement of [3H]propionyl-pNPY from human Y5 receptor expressed in human HEC1B cells to Ki for displacement of [3H]UR-KK200 from human Y4 receptor expressed in CHO cells co-expressing Gqi5-mtAEQ; format: cell-based
[8] = target: T1, Neuropeptide Y receptor type 4; experiment: Antagonist activity at human Y4R expressed in HEK293T cells co-expressing ARRB1 assessed as inhibition of hPP-induced beta-arrestin1 recruitment preincubated for 20 mins followed by hPP addition and measured for 40 mins by D-luciferin based luminescence assay; format: cell-based; details: HEK-293T
[9] = target: T1, Neuropeptide Y receptor type 4; experiment: Antagonist activity at human Y4R expressed in HEK293T cells co-expressing ARRB2 assessed as inhibition of hPP-induced beta-arrestin2 recruitment preincubated for 20 mins followed by hPP addition and measured for 40 mins by D-luciferin based luminescence assay; format: cell-based; details: HEK-293T
[10] = target: T1, Neuropeptide Y receptor type 4; experiment: (§1) Antagonist activity at human Y4 receptor expressed in CHO cells co-expressing Gqi5-mtAEQ assessed as inhibition of hPP-induced intracellular calcium mobilization preincubated for 15 mins followed by hPP addition and measured for 43 secs in presence of coelenterazine by aequorin-reporter gene based luminescence assay; format: functional, cell-based
[11] = target: T1, Neuropeptide Y receptor type 4; experiment: (§2) Antagonist activity at human Y4R expressed in HEK293T cells co-expressing ARRB1 assessed as inhibition of hPP-induced beta-arrestin1 recruitment at 10 uM preincubated for 20 mins followed by hPP addition and measured for 40 mins by D-luciferin based luminescence assay; format: cell-based; details: HEK-293T
[12] = target: T1, Neuropeptide Y receptor type 4; experiment: as §1, with “mobilization at 10 uM” for “mobilization”; format: functional, cell-based
[13] = target: T1, Neuropeptide Y receptor type 4; experiment: as §2, with “recruitment by measuring rightward shifts of hPP concentration-response curves” for “recruitment”, “assay relative to hPP” for “assay”; format: cell-based; details: HEK-293T
[14] = target: T1, Neuropeptide Y receptor type 4; experiment: Antagonist activity at human Y4 receptor expressed in CHO cells co-expressing Gqi5-mtAEQ assessed as inhibition of hPP-induced intracellular calcium mobilization by measuring rightward shifts of hPP concentration-response curves at 10 uM preincubated for 15 mins followed by hPP addition and …; format: functional, cell-based
[15] = target: T1, Neuropeptide Y receptor type 4; experiment: Agonist activity at human Y4R expressed in HEK293T cells co-expressing ARRB1 assessed as induction of beta-arrestin1 recruitment measured for 40 mins by D-luciferin based luminescence assay; format: cell-based, HEK-293T
[16] = target: T1, Neuropeptide Y receptor type 4; experiment: Agonist activity at human Y4R expressed in HEK293T cells co-expressing ARRB2 assessed as induction of beta-arrestin2 recruitment measured for 40 mins by D-luciferin based luminescence assay; format: cell-based, HEK-293T
[17] = target: T1, Neuropeptide Y receptor type 4; experiment: Agonist activity at human Y4 receptor expressed in CHO cells co-expressing Gqi5-mtAEQ assessed as intracellular calcium mobilization measured for 43 secs in presence of coelenterazine by aequorin-reporter gene based luminescence assay; format: functional, cell-based

Compound | Ki ([1]; read-out: Ki) [nM] | Ki ([2]; read-out: Ki) [nM] | Ki ([2]; read-out: pKi (converted)) [nM] | Ki ([3]; cho, read-out: Ki) [nM] | Ki ([3]; read-out: pKi (converted)) [nM] | Ki ([4]; read-out: Ki) [nM] | Ki ([4]; read-out: pKi (converted)) [nM] | pKb [8] | pKb [9] | pKb [10] | Ki ([1]; read-out: pKi (converted)) [nM] | EC50 ([15]; read-out: EC50) [nM] | EC50 ([16]; read-out: EC50) [nM] | EC50 ([17]; read-out: EC50) [nM] | Ratio Ki (Homo sapiens [5]) | Ratio Ki (Homo sapiens [6]) | Ratio Ki (Homo sapiens [7]) | other results
H-RYRWRY-NH2 | 28 | > 3000 | > 3160 | – | > 3160 | > 10000 | > 10000 | 7.14 | 6.87 | 7.32 | 26.9 | – | – | – | > 110 | > 110 | > 360 | Ki ([3]; read-out: Ki): > 3000 nM; pKb [11]: 6.63; pKb [12]: 7.05; fold change (FC) [13]: 2; fold change (FC) [14]: 2
CC(=O)N[C@@H](CCCNC(=N)N)C(=O)NC(CCCN)C(=O)NCC(=O)N[C@@H](Cc1c[nH]c2ccccc12)C(=O)N[C@@H](CCCNC(=N)N)C(=O)N[C@@H](CC(C)C)C(=O)N[C@@H](CCCNC(=N)N)C(=O)N[C@@H](Cc1ccc(O)cc1)C(N)=O (stereo not given in full) (Ac-R[ξOrn]GWRLRY-NH2) | 4.3 | – | > 1000 | > 1000 | > 1000 | > 1000 | > 1000 | – | – | – | – | 170 | 140 | 230 | > 230 | > 230 | > 230 | Ki ([2]; sk-n-mc, read-out: Ki): > 1000 nM
CC(=O)N[C@@H](CCCNC(=N)N)C(=O)N[C@@H](Cc1ccc(O)cc1)C(=O)N[C@@H](CCCNC(=N)N)C(=O)N[C@@H](CC(C)C)C(=O)N[C@@H](CCCNC(=N)N)C(=O)N[C@@H](Cc1ccc(O)cc1)C(N)=O | 3.4 to 3.6 | > 3000 | – | – | – | > 3000 | – | – | – | – | 3.72 | 170 | 120 | 190 | > 830 | > 830 | > 830 | Ki ([3]; read-out: Ki): > 3000 nM; EC50 ([15]; read-out: pEC50 (converted)): 162 nM; EC50 ([16]; read-out: pEC50 (converted)): 112 nM; EC50 ([17]; read-out: pEC50 (converted)): 182 nM
Ac-RGYRWRW-NH2 | 250 | – | – | – | – | – | – | 6.1 | 5.8 | 6.46 | 240 | – | – | – | – | – | – | –
CC(C)C[C@H](NC(=O)[C@H](CCCNC(=N)N)NC(=O)[C@H](Cc1ccc(O)cc1)NC(=O)[C@@H](N)CCCNC(=N)N)C(=O)N[C@@H](CCCNC(=N)N)C(=O)N[C@@H](Cc1ccc(O)cc1)C(N)=O | 2 | > 3000 | > 3160 | > 10000 | > 10000 | > 3000 | > 3160 | – | – | – | – | 51 | 38 | 100 | > 1500 | > 5000 | > 1500 | –
Ac-RGRLRY-NH2 | 7.9 | > 3000 | > 3160 | > 1000 | > 1000 | > 3000 | > 3160 | – | – | – | 7.59 | 180 | 250 | 1200 | > 380 | > 130 | > 380 | –
CC(=O)N[C@@H](CCCNC(=N)N)C(=O)NC(CCCN)C(=O)N[C@@H](Cc1ccc(O)cc1)C(=O)N[C@@H](CCCNC(=N)N)C(=O)N[C@@H](Cc1c[nH]c2ccccc12)C(=O)N[C@@H](CCCNC(=N)N)C(=O)N[C@@H](Cc1ccc(O)cc1)C(N)=O (stereo not given in full) (Ac-R[ξOrn]YRWRY-NH2) | 160 | – | – | – | – | – | – | 6.22 | 5.87 | 6.91 | – | – | – | – | – | – | – | –

The remaining compounds from weak to strong by Ki ([1]; read-out: Ki), led by results:

Ki ([1]; read-out: Ki) [nM] | Ki ([2]; read-out: Ki) [nM] | Ki ([2]; read-out: pKi (converted)) [nM] | Ki ([3]; cho, read-out: Ki) [nM] | Ki ([3]; read-out: pKi (converted)) [nM] | Ki ([4]; read-out: Ki) [nM] | Ki ([4]; read-out: pKi (converted)) [nM] | pKb [8] | pKb [9] | pKb [10] | Ki ([1]; read-out: pKi (converted)) [nM] | EC50 ([15]; read-out: EC50) [nM] | EC50 ([16]; read-out: EC50) [nM] | EC50 ([17]; read-out: EC50) [nM] | Compound | Ratio Ki (Homo sapiens [5]) | Ratio Ki (Homo sapiens [6]) | Ratio Ki (Homo sapiens [7]) | other results
97 | – | – | – | – | – | – | 7.02 | 6.85 | 7.22 | 89.1 | – | – | – | Ac-RYRWRY-NH2 | – | – | – | –
29 | > 3000 | > 3160 | > 10000 | > 10000 | > 3000 | > 3160 | 6.96 | 7.01 | 7.57 | – | – | – | – | Ac-RGYRWRY-NH2 | > 100 | > 340 | > 100 | –
3.4 | – | > 10000 | > 10000 | > 10000 | > 10000 | > 10000 | – | – | – | – | 280 | 170 | 440 | CC(C)C[C@H](NC(=O)[C@@H](N)CCCNC(=N)N)C(=O)N[C@@H](CCCNC(=N)N)C(=O)N[C@@H](Cc1ccc(O)cc1)C(N)=O | > 2900 | > 2900 | > 2900 | Ki ([2]; sk-n-mc, read-out: Ki): > 10000 nM
2.8 | – | > 1000 | – | > 3160 | > 10000 | > 10000 | – | – | – | – | 160 | 51 | 110 | Ac-RGWRLRY-NH2 | > 360 | > 1070 | > 3600 | Ki ([2]; sk-n-mc, read-out: Ki): > 1000 nM; Ki ([3]; read-out: Ki): > 3000 nM
